The term inhibition denotes how much of the control response was suppressed. As a reminder, the viability is a read-out of living cells in per cent, often relative to untreated cells.

The source of these data is US20150119373A1, “NOVEL BETULINIC ACID DERIVATIVES AS HIV INHIBITORS” (HETERO RESEARCH FOUNDATION, priority 2012, published 2015).

Like-named read-outs stand apart in the source and are kept apart here.

For one data set, the system named is HIV-1 strain 92HT599. Nature of the data set: Antiviral activity: p24 estimation in MT2 cells infected with HIV-1 strain 92HT599. The format is cell-based. The note with it: for inhibition at 0.1 µM: read-out: Antiviral activity % inhibition 100 nM; for inhibition at 1 µM: read-out: Antiviral activity % inhibition 1000 nM. Here is the method:
MT2 cells were infected with HIV-1 strain 92HT599 (10 TCID 50/30000 cells). The infected cells were plated at the concentration of […] cells per well in 96 well plate. Test compound was added to the micro plate in defined format with the final concentration of DMSO (vehicle) is not more than 1%. Incubation was carried out in CO2 incubator for ˜96 hours for viral infection. At the end of incubation period an aliquot from each well was taken for p24 estimation. The quantitation of p24 is an index for antiviral activity of the compound. Percent inhibition was calculated with reference to control values (vehicle controls).
p-24 estimation was carried out using Advance biosciences kit as per the procedure detailed by supplier.

Data set [1] can be described thus: Cyto-toxicity assay (MTT) in MT2 cells without virus. The note with it: human. The format is cell-based. The procedure: For cyto-toxicity assay the same amount of MT2 cells as in antiviral assay without virus was added to the 96 well plates. The cyto-toxicity was measured using MTT reagent in parallel with p24 estimation. The percent viability is calculated in comparison with vehicle control.

Setting [2] is: Human immunodeficiency virus 1, 100 nM, MT2 cells, HIV-1 92HT599, ~96 hours, p24.
Setting [3] is: Human immunodeficiency virus 1, 1000 nM, MT2 cells, HIV-1 92HT599, ~96 hours, p24.
Where [4] appears, read: Human immunodeficiency virus 1, MT2, 96 h.

`C=C(C)[C@@H]1CC[C@]2(C(=O)N3CCCCC3)CC[C@]3(C)[C@H](CC[C@@H]4[C@@]5(C)CC[C@H](OC(=O)[C@H]6[C@@H](CC(=O)O)C6(C)C)C(C)(C)[C@@H]5CC[C@]43C)[C@@H]12` [Compound 2, 2-((1R,3S)-2,2-dimethyl-3-(((1R,3aS,5aR,5bR,7aR,9S,11aR,11bR,13aR,13bR)-5a,5b,8,8,11a-pentamethyl-3a-(piperidine-1-carbonyl)-1-(prop-1-en-2-yl)icosahydro-1H-cyclopenta[a]chrysen-9-yloxy)carbonyl)cyclopropyl)acetic acid]: the inhibition at 0.1 µM in the data set on HIV-1 strain 92HT599 (setting [2]) was 77%. For the same compound, the inhibition at 1 µM in the data set with HIV-1 strain 92HT599 (setting [3]) was 98%. In data set [1], this compound had a viability at 100 nM of 96% and a viability at 1000 nM of 95%.

As for `CC(C)(CC(=O)O[C@H]1CC[C@]2(C)[C@H]3CC[C@@H]4[C@H]5[C@H](C6(C)CC6)CC[C@]5(C(=O)N5CCCCC5)CC[C@@]4(C)[C@]3(C)CC[C@H]2C1(C)C)C(=O)O` [Compound 3, 2,2-dimethyl-4-oxo-4-((1R,3aS,5aR,5bR,7aR,9S,11aR,11bR,13aR,13bR)-5a,5b,8,8,11a-pentamethyl-1-(1-methylcyclopropyl)-3a-(piperidine-1-carbonyl)icosahydro-1H-cyclopenta[a]chrysen-9-yloxy)butanoic acid], the inhibition at 0.1 µM with HIV-1 strain 92HT599 (setting [2]) is 97%. Besides, the inhibition at 1 µM with HIV-1 strain 92HT599 (setting [3]) was 97%. Further, in data set [1], the viability at 100 nM was 100% and the viability at 1000 nM was determined as 99%.

Regarding `C=C(C)[C@@H]1CC[C@]2(c3nnc(-c4ccccc4)o3)CC[C@]3(C)[C@H](CC[C@@H]4[C@@]5(C)CC[C@H](OC(=O)[C@H]6[C@@H](CC(=O)O)C6(C)C)C(C)(C)[C@@H]5CC[C@]43C)[C@@H]12` [Example 5, 2-((1R,3S)-2,2-dimethyl-3-(((1R,3aS,5aR,5bR,7aR,9S,11aR,11bR,13aR,13bR)-5a,5b,8,8,11a-pentamethyl-3a-(5-phenyl-1,3,4-oxadiazol-2-yl)-1-(prop-1-en-2-yl)icosa hydro-1H-cyclopenta[a]chrysen-9-yloxy)carbonyl)cyclopropyl)acetic acid], in the data set with HIV-1 strain 92HT599 (setting [2]), the inhibition at 0.1 µM is 49%. Moreover, the inhibition at 1 µM in the data set on HIV-1 strain 92HT599 (setting [3]) was 92%. In data set [1], this compound had a viability at 100 nM of 95% and a viability at 1000 nM of 98%.

With `C=C(C)[C@@H]1CC[C@]2(c3nnc(-c4cccnc4)o3)CC[C@]3(C)[C@H](CC[C@@H]4[C@@]5(C)CC[C@H](OC(=O)[C@H]6[C@@H](CC(=O)O)C6(C)C)C(C)(C)[C@@H]5CC[C@]43C)[C@@H]12` [Example 6, 2-((1R,3S)-2,2-dimethyl-3-(((1R,3aS,5aR,5bR,7aR,9S,11aR,11bR,13aR,13bR)-5a,5b,8,8,11a-pentamethyl-1-(prop-1-en-2-yl)-3a-(5-(pyridin-3-yl)-1,3,4-oxadiazol-2-yl)icosahydro-1H-cyclopenta[a]chrysen-9-yloxy)carbonyl)cyclopropyl)aceticacid], in the data set with HIV-1 strain 92HT599 (setting [2]), the inhibition at 0.1 µM is 85%. Also, the inhibition at 1 µM in the data set on HIV-1 strain 92HT599 (setting [3]) is 92%. Also, in data set [1], the viability at 100 nM was 94% and the viability at 1000 nM was found to be 87%.

As for `[2H]C([2H])([2H])C(N1CCN(C(=O)[C@]23CC[C@@H](C(=C)C)[C@@H]2[C@H]2CC[C@@H]4[C@@]5(C)CC[C@H](OC(=O)CC(C)(C)C(=O)O)C(C)(C)[C@@H]5CC[C@@]4(C)[C@]2(C)CC3)CC1)C([2H])([2H])[2H]` [Example 7, 4-((1R,3aS,5aR,5bR,7aR,9S,11aR,11bR,13aR,13bR)-3a-(4-(1-methylethyl-2,2,2,1′,1′,1′-D6)piperazine-1-carbonyl)-5a,5b,8,8,11a-pentamethyl-1-(prop-1-en-2-yl)icosahydro-1H-cyclopenta[a]chrysen-9-yloxy)-2,2-dimethyl-4-oxobutanoic acid], in the data set with HIV-1 strain 92HT599 (setting [4]), the inhibition at 0.1 µM is 98% and the inhibition at 1 µM was 97%. The viability at 100 nM in data set [1] (100 nM, MT2 cells, MTT, read-out: Cytotoxicity % viability 100 nM) came to 99%. The viability at 1000 nM in data set [1] (1000 nM, MT2 cells, MTT, read-out: Cytotoxicity % viability 1000 nM) was 96%.

Take `[2H]C([2H])([2H])C(N1CCN(C(=O)[C@H]2C[C@@H](NC(=O)[C@]34CC[C@@H](C(=C)C)[C@@H]3[C@H]3CC[C@@H]5[C@@]6(C)CC[C@H](OC(=O)CC(C)(C)C(=O)O)C(C)(C)[C@@H]6CC[C@@]5(C)[C@]3(C)CC4)C2(C)C)CC1)C([2H])([2H])[2H]` [Example 8, 4-((1R,3aS,5aR,5bR,7aR,9S,11aR,11bR,13aR,13bR)-3a-((1R,3S)-3-(4-(1-methylethyl-2,2,2,1′,1′,1′-D6)piperazine-1-carbonyl)-2,2-dimethylcyclobutylcarbamoyl)-5a,5b,8,8,11a-pentamethyl-1-(prop-1-en-2-yl)icosahydro-1H-cyclopenta[a]chrysen-9-yloxy)-2,2-dimethyl-4-oxobutanoic acid]: the inhibition at 0.1 µM in the data set with HIV-1 strain 92HT599 (setting [2]) is 100%. The inhibition at 1 µM in the data set on HIV-1 strain 92HT599 (setting [3]) is 100%. In data set [1], the viability at 100 nM is 90% and the viability at 1000 nM stood at 97%.

Take `C=C(C)[C@@H]1CC[C@]2(C(=O)N[C@@H]3C[C@H](C(=O)N4CCCCC4)C3(C)C)CC[C@]3(C)[C@H](CC[C@@H]4[C@@]5(C)CC[C@H](OC(=O)CC(C)(C)C(=O)OCOC)C(C)(C)[C@@H]5CC[C@]43C)[C@@H]12` [Example 9, 4-(1R,3aS,5aR,5bR,7aR,9S,11aR,11bR,13aR,13bR)-3a-((1R,3S)-2,2-dimethyl-3-(piperidine-1-carbonyl)cyclobutylcarbamoyl)-5a,5b,8,8,11a-pentamethyl-1-(prop-1-en-2-yl)icosahydro-1H-cyclopenta[a]chrysen-9-yl 1-methoxymethyl 2,2-dimethylsuccinate]: the inhibition at 0.1 µM in the data set on HIV-1 strain 92HT599 (setting [2]) was 64%. Further, in the data set on HIV-1 strain 92HT599 (setting [3]), the inhibition at 1 µM was 99%. Besides, in data set [1], the viability at 100 nM was found to be 82% and the viability at 1000 nM is 88%.

With `C=C(C)[C@@H]1CC[C@]2(C(=O)N[C@@H]3C[C@H](c4nnc(CC(C)C)o4)C3(C)C)CC[C@]3(C)[C@H](CC[C@@H]4[C@@]5(C)CC[C@H](OC(=O)CC(C)(C)C(=O)O)C(C)(C)[C@@H]5CC[C@]43C)[C@@H]12` [Example 16, 4-((1R,3aS,5aR,5bR,7aR,9S,11aR,11bR,13aR,13bR)-3a-((1R,3S)-3-(5-isobutyl-1,3,4-oxadiazol-2-yl)-2,2-dimethylcyclobutylcarbamoyl)-5a,5b,8,8,11a-pentamethyl-1-(prop-1-en-2-yl)icosahydro-1H-cyclopenta[a]chrysen-9-yloxy)-2,2-dimethyl-4-oxobutanoic acid], in the data set on HIV-1 strain 92HT599 (setting [2]), the inhibition at 0.1 µM was 100%. Moreover, the inhibition at 1 µM in the data set on HIV-1 strain 92HT599 (setting [3]) is 100%. In data set [1], this compound yielded a viability at 100 nM of 81% and a viability at 1000 nM of 79%.

On to `C=C(C)[C@@H]1CC[C@]2(C(=O)N3CCN(CC)CC3)CC[C@]3(C)[C@H](CC[C@@H]4[C@@]5(C)CC[C@H](OC(=O)[C@H]6[C@@H](CC(=O)O)C6(C)C)C(C)(C)[C@@H]5CC[C@]43C)[C@@H]12` [Example 19, 2-((1R,3S)-3-(((1R,3aS,5aR,5bR,7aR,9S,11aR,11bR,13aR,13bR)-3a-(4-ethylpiperazine-1-carbonyl)-5a,5b,8,8,11a-pentamethyl-1-(prop-1-en-2-yl)icosahydro-1H-cyclopenta[a]chrysen-9-yloxy)carbonyl)-2,2-dimethylcyclopropyl)aceticacid], for which, in the data set on HIV-1 strain 92HT599 (setting [2]), the inhibition at 0.1 µM is 91%. In addition, the inhibition at 1 µM with HIV-1 strain 92HT599 (setting [3]) was 95%. In addition, in data set [1], the viability at 100 nM stood at 100% and the viability at 1000 nM amounted to 100%.

On to `CC(C)(CC(=O)O[C@H]1CC[C@]2(C)[C@H]3CC[C@@H]4[C@H]5[C@H](C6(C)CC6)CC[C@]5(C(=O)N5CCN(C(=O)C(C)(CO)CO)CC5)CC[C@@]4(C)[C@]3(C)CC[C@H]2C1(C)C)C(=O)O` [Example 35], for which the inhibition at 0.1 µM in the data set with HIV-1 strain 92HT599 (setting [2]) is 26%. In addition, in the data set on HIV-1 strain 92HT599 (setting [3]), the inhibition at 1 µM is 84%. In data set [1], this compound showed a viability at 100 nM of 70% and a viability at 1000 nM of 81%.

On to `CC(CO)(CO)C(=O)N1CCN(C(=O)[C@]23CC[C@@H](C4(C)CC4)[C@@H]2[C@H]2CC[C@@H]4[C@@]5(C)CC[C@H](OC(=O)[C@H]6C[C@@H](C(=O)O)C6(C)C)C(C)(C)[C@@H]5CC[C@@]4(C)[C@]2(C)CC3)CC1` [Example 36], for which the inhibition at 0.1 µM with HIV-1 strain 92HT599 (setting [2]) is 33%. The inhibition at 1 µM with HIV-1 strain 92HT599 (setting [3]) was 99%. Moreover, in data set [1], the viability at 100 nM turned out to be 77% and the viability at 1000 nM is 90%.

Consider `CC(C)(C)OC(=O)N1CCN(C(=O)[C@]23CC[C@@H](C4(C)CC4)[C@@H]2[C@H]2CC[C@@H]4[C@@]5(C)CC[C@H](OC(=O)CC(C)(C)C(=O)O)C(C)(C)[C@@H]5CC[C@@]4(C)[C@]2(C)CC3)CC1` [Example 37], for which, in the data set with HIV-1 strain 92HT599 (setting [2]), the inhibition at 0.1 µM is 30%. Besides, in the data set with HIV-1 strain 92HT599 (setting [3]), the inhibition at 1 µM is 99%. In data set [1], this compound displayed a viability at 100 nM of 73% and a viability at 1000 nM of 72%.

For `CC(C)(C)OC(=O)N1CCN(C(=O)[C@]23CC[C@@H](C4(C)CC4)[C@@H]2[C@H]2CC[C@@H]4[C@@]5(C)CC[C@H](OC(=O)[C@H]6C[C@@H](C(=O)O)C6(C)C)C(C)(C)[C@@H]5CC[C@@]4(C)[C@]2(C)CC3)CC1` [Example 38], the inhibition at 0.1 µM in the data set with HIV-1 strain 92HT599 (setting [2]) was 68%. For the same compound, the inhibition at 1 µM in the data set with HIV-1 strain 92HT599 (setting [3]) was 99%. In data set [1], this compound displayed a viability at 100 nM of 85% and a viability at 1000 nM of 83%.
